Article PMC6407917, “Identification of GSK3186899/DDD853651 as a Preclinical Development Candidate for the Treatment of Visceral Leishmaniasis” (Journal of Medicinal Chemistry, 2018)

Legend:
Assay in all cases: biochemical
Parameters in all cases: species or system HEK293/K-562/placenta mixed human extract; Kinobeads chemoproteomic competition binding, quantified by TMT LC-MS/MS, dose response up to 20 uM
MKNK1 = MKNK1 (Homo sapiens, UniProt Q9BUB5)
MINK1 = MINK1 (Homo sapiens, UniProt Q8N4C8)
NEK7 = NEK7 (Homo sapiens, UniProt Q8TDX7)
Sequence of NEK7 (Q8TDX7 whole entry): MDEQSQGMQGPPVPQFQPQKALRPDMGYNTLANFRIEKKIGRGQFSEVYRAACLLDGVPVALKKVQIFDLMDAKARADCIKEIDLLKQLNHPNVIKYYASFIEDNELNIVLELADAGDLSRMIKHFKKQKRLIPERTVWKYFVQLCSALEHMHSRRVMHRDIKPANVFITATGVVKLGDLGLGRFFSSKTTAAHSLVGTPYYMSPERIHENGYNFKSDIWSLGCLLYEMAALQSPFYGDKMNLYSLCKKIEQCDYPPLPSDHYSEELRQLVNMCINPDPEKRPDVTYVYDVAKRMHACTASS

MARK4 = MARK4 (Homo sapiens, UniProt Q96L34)
YWHAZ = YWHAZ (Homo sapiens, UniProt P63104)
Sequence of YWHAZ (P63104 whole entry): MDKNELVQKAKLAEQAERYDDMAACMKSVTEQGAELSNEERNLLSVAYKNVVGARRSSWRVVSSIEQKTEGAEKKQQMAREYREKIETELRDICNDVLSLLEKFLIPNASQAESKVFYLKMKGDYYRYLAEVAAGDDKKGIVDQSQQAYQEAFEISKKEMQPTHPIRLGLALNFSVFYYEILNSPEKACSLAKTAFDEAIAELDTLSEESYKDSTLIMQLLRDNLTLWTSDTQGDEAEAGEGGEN

MAPK3 = MAPK3 (Homo sapiens, UniProt P27361)
Sequence of MAPK3 (P27361 whole entry): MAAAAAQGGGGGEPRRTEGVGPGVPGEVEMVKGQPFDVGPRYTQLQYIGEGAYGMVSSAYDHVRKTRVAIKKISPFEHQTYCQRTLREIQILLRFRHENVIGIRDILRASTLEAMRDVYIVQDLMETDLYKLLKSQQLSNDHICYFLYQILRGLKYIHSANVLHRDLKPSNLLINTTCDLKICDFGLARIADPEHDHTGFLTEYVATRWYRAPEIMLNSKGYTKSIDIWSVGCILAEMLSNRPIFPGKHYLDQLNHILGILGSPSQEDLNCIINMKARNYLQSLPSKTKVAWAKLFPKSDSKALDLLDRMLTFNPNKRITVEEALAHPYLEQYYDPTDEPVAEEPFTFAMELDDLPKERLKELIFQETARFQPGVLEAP

EGFR = EGFR (Homo sapiens, UniProt P00533)
DCK = DCK (Homo sapiens, UniProt P27707)
STK39 = STK39 (Homo sapiens, UniProt Q9UEW8)
AAK1 = AAK1 (Homo sapiens, UniProt Q2M2I8)
PKN3 = PKN3 (Homo sapiens, UniProt Q6P5Z2)
Sequence of PKN3 (Q6P5Z2 whole entry): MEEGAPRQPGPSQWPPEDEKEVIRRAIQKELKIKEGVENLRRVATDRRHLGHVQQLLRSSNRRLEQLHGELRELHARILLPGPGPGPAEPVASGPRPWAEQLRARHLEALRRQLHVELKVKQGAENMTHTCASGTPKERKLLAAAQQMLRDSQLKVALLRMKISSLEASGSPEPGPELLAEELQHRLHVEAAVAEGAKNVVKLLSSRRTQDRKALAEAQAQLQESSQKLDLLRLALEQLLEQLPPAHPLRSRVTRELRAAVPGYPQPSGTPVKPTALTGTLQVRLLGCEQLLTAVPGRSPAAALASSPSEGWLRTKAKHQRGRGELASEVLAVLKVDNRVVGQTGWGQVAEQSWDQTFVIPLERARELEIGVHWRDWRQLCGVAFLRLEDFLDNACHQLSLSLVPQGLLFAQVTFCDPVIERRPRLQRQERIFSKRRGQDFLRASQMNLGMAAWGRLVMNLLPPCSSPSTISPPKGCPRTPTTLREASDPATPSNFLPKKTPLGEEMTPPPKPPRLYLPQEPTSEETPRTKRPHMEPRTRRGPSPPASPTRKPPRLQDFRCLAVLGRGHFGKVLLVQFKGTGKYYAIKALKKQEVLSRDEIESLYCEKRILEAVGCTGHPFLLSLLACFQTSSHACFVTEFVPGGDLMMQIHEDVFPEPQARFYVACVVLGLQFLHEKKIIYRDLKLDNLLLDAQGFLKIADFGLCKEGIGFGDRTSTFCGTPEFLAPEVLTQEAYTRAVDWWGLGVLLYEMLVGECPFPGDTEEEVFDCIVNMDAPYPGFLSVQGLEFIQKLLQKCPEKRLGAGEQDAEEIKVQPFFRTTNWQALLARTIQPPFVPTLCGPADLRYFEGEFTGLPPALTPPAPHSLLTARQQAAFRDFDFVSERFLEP

FER = FER (Homo sapiens, UniProt P16591)
Sequence of FER (P16591 whole entry): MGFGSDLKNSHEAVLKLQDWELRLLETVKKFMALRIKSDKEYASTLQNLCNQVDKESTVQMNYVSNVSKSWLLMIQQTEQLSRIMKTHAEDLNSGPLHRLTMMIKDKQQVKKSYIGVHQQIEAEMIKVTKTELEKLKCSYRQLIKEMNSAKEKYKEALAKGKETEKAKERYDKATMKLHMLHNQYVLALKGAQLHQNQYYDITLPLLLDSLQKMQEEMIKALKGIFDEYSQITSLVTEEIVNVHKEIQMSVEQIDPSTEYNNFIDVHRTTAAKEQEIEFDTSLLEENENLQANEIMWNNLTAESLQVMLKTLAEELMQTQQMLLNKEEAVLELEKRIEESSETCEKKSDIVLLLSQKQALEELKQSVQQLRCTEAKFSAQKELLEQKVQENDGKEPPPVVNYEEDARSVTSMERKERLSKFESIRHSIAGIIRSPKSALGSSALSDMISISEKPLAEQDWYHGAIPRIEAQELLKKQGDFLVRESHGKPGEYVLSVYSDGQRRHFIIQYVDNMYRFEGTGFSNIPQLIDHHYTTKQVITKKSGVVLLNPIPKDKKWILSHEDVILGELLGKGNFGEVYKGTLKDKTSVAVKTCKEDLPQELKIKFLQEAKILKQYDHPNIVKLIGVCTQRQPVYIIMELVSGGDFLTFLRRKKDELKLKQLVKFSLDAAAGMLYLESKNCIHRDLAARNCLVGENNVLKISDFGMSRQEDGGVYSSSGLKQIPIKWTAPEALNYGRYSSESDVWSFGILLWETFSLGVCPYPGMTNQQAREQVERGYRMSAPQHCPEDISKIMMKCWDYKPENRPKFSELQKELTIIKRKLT

CAMK2D = CAMK2D (Homo sapiens, UniProt Q13557)
EPHB6 = EPHB6 (Homo sapiens, UniProt O15197)
SLK = SLK (Homo sapiens, UniProt Q9H2G2)
LATS1 = LATS1 (Homo sapiens, UniProt O95835)
Sequence of LATS1 (O95835 whole entry): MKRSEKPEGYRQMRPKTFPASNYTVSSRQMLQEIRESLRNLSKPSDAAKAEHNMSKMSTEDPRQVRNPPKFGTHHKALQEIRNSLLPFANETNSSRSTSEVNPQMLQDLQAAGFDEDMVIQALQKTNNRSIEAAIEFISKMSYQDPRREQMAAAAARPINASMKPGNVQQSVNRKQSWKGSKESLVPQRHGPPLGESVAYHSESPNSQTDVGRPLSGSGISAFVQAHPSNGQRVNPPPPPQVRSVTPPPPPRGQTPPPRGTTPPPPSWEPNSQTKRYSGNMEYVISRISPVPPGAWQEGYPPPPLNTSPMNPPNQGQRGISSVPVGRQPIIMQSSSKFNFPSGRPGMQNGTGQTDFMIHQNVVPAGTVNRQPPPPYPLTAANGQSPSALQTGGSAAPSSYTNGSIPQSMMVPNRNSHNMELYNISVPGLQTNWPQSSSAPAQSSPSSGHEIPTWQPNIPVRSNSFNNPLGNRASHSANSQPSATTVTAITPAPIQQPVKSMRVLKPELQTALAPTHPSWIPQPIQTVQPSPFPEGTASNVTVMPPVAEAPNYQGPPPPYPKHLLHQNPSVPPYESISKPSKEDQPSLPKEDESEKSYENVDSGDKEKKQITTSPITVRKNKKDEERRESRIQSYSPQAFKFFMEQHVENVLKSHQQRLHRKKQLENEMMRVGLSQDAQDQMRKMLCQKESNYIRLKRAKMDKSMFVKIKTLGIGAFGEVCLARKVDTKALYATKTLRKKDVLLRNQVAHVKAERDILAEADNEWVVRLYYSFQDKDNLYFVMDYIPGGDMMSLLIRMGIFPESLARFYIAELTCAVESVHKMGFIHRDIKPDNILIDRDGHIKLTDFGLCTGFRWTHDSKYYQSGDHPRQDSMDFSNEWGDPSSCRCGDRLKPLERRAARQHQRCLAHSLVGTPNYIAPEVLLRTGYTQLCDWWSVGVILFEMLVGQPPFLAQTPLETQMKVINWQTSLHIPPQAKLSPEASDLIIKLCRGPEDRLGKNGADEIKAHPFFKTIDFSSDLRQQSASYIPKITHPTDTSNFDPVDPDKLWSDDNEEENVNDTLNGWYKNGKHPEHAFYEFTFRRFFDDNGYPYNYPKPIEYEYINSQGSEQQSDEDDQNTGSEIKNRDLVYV

PRKCB = PRKCB (Homo sapiens, UniProt P05771)
Sequence of PRKCB (P05771 whole entry): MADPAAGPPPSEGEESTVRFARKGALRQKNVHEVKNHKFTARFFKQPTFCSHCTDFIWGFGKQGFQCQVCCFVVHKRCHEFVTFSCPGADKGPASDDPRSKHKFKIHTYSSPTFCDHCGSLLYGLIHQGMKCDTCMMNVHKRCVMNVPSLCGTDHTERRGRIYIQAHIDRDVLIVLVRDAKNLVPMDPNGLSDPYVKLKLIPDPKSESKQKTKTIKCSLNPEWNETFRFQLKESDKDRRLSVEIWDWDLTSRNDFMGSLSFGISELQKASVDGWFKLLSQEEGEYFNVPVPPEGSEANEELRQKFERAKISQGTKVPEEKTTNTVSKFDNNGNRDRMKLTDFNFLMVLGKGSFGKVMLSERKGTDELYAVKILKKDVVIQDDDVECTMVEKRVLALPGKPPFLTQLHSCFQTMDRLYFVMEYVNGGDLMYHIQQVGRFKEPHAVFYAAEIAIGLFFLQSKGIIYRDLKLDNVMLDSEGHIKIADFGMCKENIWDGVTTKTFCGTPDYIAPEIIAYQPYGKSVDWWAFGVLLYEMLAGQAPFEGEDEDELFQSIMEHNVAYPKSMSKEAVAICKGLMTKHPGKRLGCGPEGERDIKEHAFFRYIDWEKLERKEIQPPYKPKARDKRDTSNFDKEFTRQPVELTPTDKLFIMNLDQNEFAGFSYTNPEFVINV

EPHA3 = EPHA3 (Homo sapiens, UniProt P29320)
LIMK2 = LIMK2 (Homo sapiens, UniProt P53671)
OXSR1 = OXSR1 (Homo sapiens, UniProt O95747)
Sequence of OXSR1 (O95747 whole entry): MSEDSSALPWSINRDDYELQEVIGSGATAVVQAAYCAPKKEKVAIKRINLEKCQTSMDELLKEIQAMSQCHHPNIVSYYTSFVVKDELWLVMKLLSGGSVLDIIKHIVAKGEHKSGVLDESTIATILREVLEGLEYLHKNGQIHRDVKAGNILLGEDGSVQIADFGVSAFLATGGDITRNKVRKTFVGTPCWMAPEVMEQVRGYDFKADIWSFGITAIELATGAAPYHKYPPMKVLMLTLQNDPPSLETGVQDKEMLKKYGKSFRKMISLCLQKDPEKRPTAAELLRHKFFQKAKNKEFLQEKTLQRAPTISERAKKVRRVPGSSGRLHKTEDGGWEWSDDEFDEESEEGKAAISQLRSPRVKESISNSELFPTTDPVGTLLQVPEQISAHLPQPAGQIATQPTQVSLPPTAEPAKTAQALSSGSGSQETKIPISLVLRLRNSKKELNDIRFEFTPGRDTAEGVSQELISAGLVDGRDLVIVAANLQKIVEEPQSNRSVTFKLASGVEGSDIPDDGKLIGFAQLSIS

DYRK1A = DYRK1A (Homo sapiens, UniProt Q13627)

Measured: IC50

COc1ccccc1-c1n[nH]c2nc(N[C@H]3CC[C@H](NS(=O)(=O)CCC(F)(F)F)CC3)nc(OC)c12 [compound 31, 3,3,3-Trifluoro-N-(trans-4-((4-methoxy-3-(2-methoxyphenyl)-1H-pyrazolo[3,4-d]pyrimidin-6-yl)amino)cyclohexyl)propane-1-sulfonamide]
≥ 20 µM: all assays above
